From patent US20190307771A1, “METHODS AND COMPOSITIONS FOR THE TREATMENT OF CANCER AND METABOLIC DISEASES” (THE REGENTS OF THE UNIVERSITY OF CALIFORNIA, priority 2016, published 2019)
“Also recorded” adds a separate entry of the source.

How the values were obtained:
[1] = T2DM and NAFLD patients; cited from earlier work
[2] = system: miR-22; assay: miR-22 induction by bile acids, FXR agonist and vitamin D3; details: unpublished data
[3] = system: DLD-1 colon cancer cells; assay: Cell viability of DLD-1 cells; details: 48 hours, RA 10 μM, butyrate 5 mM, propionate 10 mM, valerate 10 mM, SAHA 5 μM, vs. DMSO
Procedure: HCT116 and DLD-1 colon cancer cells were treated with dimethyl sulfoxide (DMSO) only (as a negative control), RA (10 μM), Fenretinide (10 μM), or an HDAC inhibitor. […] SCFAs were selected from butyrate (5 mM), propionate (10 mM), and valerate (10 mM). Some HCT116 and DLD-1 cells were treated separately with a combination of RA and one of the SCFAs. Cells were treated for 48 hours before viability was assessed.

[4] = system: RARB and NUR77 genes; assay: ChIP-qPCR: HDAC recruitment and H3K9 acetylation at RARB and NUR77 genes in HCT116 cells; assay type: cell-based; details: RA 10 μM, butyrate 5 mM, SAHA 5 μM
Procedure: Cell lysates were used for ChIP with antibodies specific for HDAC1, HDAC4, SIRT1, or acetylated H3K9, followed by qPCR using primers specific for the RARB and NUR77 genes. DMSO treated cells and IP using IgG were included as negative controls. […]inding was expressed relative to the IgG negative controls.
(§1) Chromatin immunoprecipitation (ChIP)-qPCR ChIP-qPCR was performed as described previously^21. Briefly, chromatin lysate was precleared before incubation with an anti-H3K9AC antibody (Millipore. Billerica, Mass.), anti-HDAC1 and anti-HDAC4 (Cell signaling technology, Beverly, Mass.) or anti-SIRT1 antibody (Santa Cruz Biotechnology, Santa Cruz, Calif.). IgG (Santa Cruz Biotechnology, Santa Cruz, Calif.) and RNA Polymerase II antibody (Millipore, Billerica, Mass.) were used as negative and positive controls, respectively. Samples were incubated with Dynase beads at 4° C. overnight followed by de-crosslinking and purification. DNA fragments generated served as templates for qPCR using Power SYBR1 Green PCR Master Mix.

[5] = system: liver cancer cells (Huh7, Hep3B, HepG2); details: cited from earlier work; for Apoptosis of liver cancer cells: published studies
[6] = cited from earlier work
[7] = system: NUR77 and RARβ; assay: Induction and localization of NUR77 and RARβ in HCT116 cells; assay type: cell-based; details: 48 hours, RA 10 μM, butyrate 5 mM, SAHA 5 μM, EGF 32 nM
Procedure: Proteins were immunoprecipitated by anti-NUR77 or anti-RARβ antibodies, or IgG, followed by Western blot using anti-RARβ or anti-NUR77 antibodies.
To study the effect of miR-22 in induction of cytosolic NUR77 by RA/butyrate, adenoviral-delivery of miR-22 inhibitors tagged with green fluorescence (adeno-miR-22 inhibitor-GFP, Applied Biological Materials Inc, Richond, BC) were used to infect HCT116 cells. At 48 hours post adenoviral infection, cells were treated with RA (10 μM) plus butyrate (5 mM) or DMSO for 24 hours. […] Cells were mounted in ProLong® Gold Antifade Reagent with DAPI (4′,6-diamidino-2-phenylindole, Life Technologies, Carlsbad, Calif.) and imaged under Keyence BZ-9000 microscope.

[8] = system: NUR77; assay: ChIP-qPCR and RT-PCR: NUR77 binding to BRE and CCND2 and their mRNA; assay type: cell-based; details: HCT116 cells
Procedure: (§2) NUR77 and RARβ acetylation status was also studied because protein acetylation alters nuclear receptor activity^37. […] To study the effect of RA/butyrate in modulating NUR77 and RARβ transcriptional activity, ChIP-qPCR and RT-PCR were performed to determine receptor binding to transcriptional regulatory regions and mRNA levels of downstream targets, respectively.
as §1

[9] = system: Gpr41, Gpr43, Gpr109a, Pgc1α, Pepck, Fas; assay: Ileal and hepatic mRNA levels in mice after oral gavage; assay type: in vivo, C57BL/6 mice; details: RA 15 mg/kg and/or butyrate 500 mg/kg, oral gavage every other day for one week
[10] = system: miR-22; assay: miR-22 expression in HCT116 cells (qRT-PCR); assay type: cell-based; details: 24 hours, RA 10 μM, butyrate 5 mM, propionate 10 mM, valerate 10 mM, SAHA 5 μM
Procedure: To study the effect of RA and HDAC inhibitors on miR-22 expression, HCT116 cells were treated with RA, butyrate, propionate, valerate, and SAHA. The SCFA concentrations used were within physiologic ranges^35.
(§3) Total RNA was extracted with TRIzol Reagent (Invitrogen, Carlsbad, Calif.), and cDNA was generated using High Capacity RNA-to-cDNA Kit (Applied Biosystems, Carlsbad, Calif.). qRT-PCR was performed on ABI 7900HT Fast Real time PCR system using Power SYBR® Green PCR Master Mix (Applied Biosystems, Carlsbad, Calif.).

[11] = system: HDAC1, HDAC4, SIRT1, cyclin A2 (CCNA2); assay: Western blot of protein deacetylases and cyclin A2 in HCT116 cells; assay type: cell-based; details: 24 hours, RA 10 μM, butyrate 5 mM, SAHA 5 μM
[12] = system: retinoic acid receptor beta (RARβ); assay: RARB expression in HCT116 cells (qRT-PCR); assay type: cell-based; details: 24 hours, RA 10 μM, butyrate 5 mM, SAHA 5 μM
Procedure: as §3

[13] = cited from earlier work; remark: listed apart in the source
[14] = system: liver cancer cells (Huh7, Hep3B, HepG2); assay: Apoptosis of liver cancer cells; details: prevented by NUR77 siRNA
[15] = system: primary liver cancer; details: cited from earlier work
[16] = system: HCT116 colon cancer cells; assay: MTT cell viability assay in HCT116 cells; assay type: cell-based; details: RA 10 μM, butyrate 5 mM, SAHA 5 μM
Procedure: Cell viability was monitored by MTT assay.
HCT116 cells (American Type Culture Collection) were maintained in McCoy's 5a medium from Gibco (Life Technologies, Carlsbad, Calif.) with 10% FBS. Cells were plated (1×10^6 cells per 60-mm dish, 2×10^5 cells per 6-well plates, and 1×10^5 cells per 24-well plates) overnight prior to treatment or transfection.
Cells were stained with 3-(4,5-dimethylthiazol-2-O-2,5-diphenyltetrazolium bromide (MTT, Sigma-Aldrich, St. Louis, Mo.) and measured at 570 nm with Microplate Reader (Biotek, Winooski, Vt.).

[17] = system: NUR77 and RARβ; assay: Immunoprecipitation/Western blot: protein acetylation of NUR77 and RARβ; assay type: cell-based; details: HCT116 cells; IP with anti-NUR77 or anti-RARβ, anti-acetyl lysine blot
Source text: FIG. 12A depicts the expression levels of proteins that were extracted from HCT116 cells and immunoprecipitated by anti-NUR77 and RARβ antibodies or IgG, followed by Western blot using an anti-acetyl lysine antibody. […] The mRNA levels of NUR77 target genes BRE as well as CCND2 and RARβ target genes RARβ and CYP26A1 in HCT116 cells are shown in FIG. 12C.
as §2
Western blot and immunoprecipitation were performed as described previously^22. Specific antibodies used included anti-NUR77, RARβ, SIRT1, β-actin, and IgG (Santa Cruz Biotechnology, Santa Cruz, Calif.), phospho-JNK1/2, total JNK1/2, cleaved caspase3, HDAC1 and HDAC4 (Cell Signaling Technology, Beverly, Mass.), and CCNA2 (Novus Biologicals, Littleton, Colo.). To detect protein acetylation of NUR77 and RARβ, cell lysates (500 μg) were incubated with anti-NUR77, RARβ, or IgG antibody (1 μg), precipitated by adding Dynabeads (30 μl, Life Technologies, Carlsbad, Calif.), and probed with anti-Acetyl-lysine antibody (Cell Signaling Technology, Beverly, Mass.). To study the interaction between RARβ and NUR77, whole-cell lysates were precipitated with anti-RARβ or NUR77 antibody followed by Western blot using anti-NUR77 or RARβ antibody.

[18] = system: RARβ; assay: ChIP-qPCR: RARβ binding to DR5 motif upstream of RARβ and CYP26A1 genes; assay type: cell-based; details: HCT116 cells
Procedure: as §2, §1

[19] = system: Class I (HDAC1, 2, 3, and 8) and Class IIa (HDAC4, 5, 7, and 9); details: cited from earlier work
[20] = FXR KO mice, depletion of BAs; cited from earlier work

## CC[C@H]1[C@@H](O)[C@@H]2[C@H](CC[C@]3(C)[C@@H]([C@H](C)CCC(=O)O)CC[C@@H]23)[C@@]2(C)CC[C@@H](O)C[C@@H]12 [obetacholic acid]
[1]
  Insulin sensitivity, liver inflammation and fibrosis: improves insulin sensitivity and reduces liver inflammation as well as fibrosis
[2]
  miR-22 induction: effective in inducing miR-22

## CC1=C(/C=C/C(C)=C/C=C/C(C)=C/C(=O)O)C(C)(C)CCC1 [RA, all-trans retinoic acid]
[3]
  Cell viability: reduced cell viability
[4]
  Recruitment of HDAC4 and SIRT1 to the RARB gene (ChIP-qPCR): not
[5]
  Apoptosis of liver cancer cells: not as effective as fenretinide in inducing apoptosis
[6]; RA prior to liver resection
  Microbiota phenotype, metabolism and liver regeneration: lean microbiota phenotype, improved metabolism as well as accelerated liver regeneration
[6]; one day after liver resection
  Ratio of Firmicutes to Bacteroidetes: reduced ratio of Firmicutes to Bacteroidetes
[7]
  Induction and localization of NUR77 and RARβ (immunostaining): modestly induced both receptors in the nucleus
[8]
  NUR77 binding to BRE and CCND2 promoter regions and their mRNA levels (NUR77 transcriptional activity): not RA alone
[9]
  Expression of Gpr41 and Gpr43: could induce the expression
[10]
  miR-22 expression level: upregulated; also recorded: induced miR-22 expression; also recorded: could induce miR-22; also recorded: increased miR-22 level
[11]
  Protein levels of HDAC1, HDAC4, SIRT1, and cyclin A2 (CCNA2): reduced HDAC1, HDAC4, SIRT1, and CCNA2 protein levels
[12]
  RARB (RARβ) expression / transcription: upregulated

## CC1=C(/C=C/C(C)=C/C=C/C(C)=C/C(=O)Nc2ccc(O)cc2)C(C)(C)CCC1 [fenretinide, N-(4-hydroxyphenyl) retinamide]
[13]; NCI case report, advanced cutaneous T-cell lymphoma patient
  Tumor response: tumor response
[13]; Phase II, small cell lung cancer
  Stabilization of the disease: 24 % of the patients
[13]; breast cancer chemoprevention study (3000 patients, 5 year), Phase II small cell lung cancer
  Tolerability: well tolerated in humans; also recorded: well tolerated in patients with small cell lung cancer
[5]; HepG2 vs. Huh7 and Hep3B
  Apoptotic effect in HepG2: resistant to the apoptotic effect
[5]
  Apoptosis of liver cancer cells: effectively induces apoptosis of liver cancer cells; also recorded: much better apoptosis inducer than RA
[14]
  Apoptosis of Huh7 cells: induced apoptosis of Huh7 cells

## CNC(=O)c1cc(Oc2ccc(NC(=O)Nc3ccc(Cl)c(C(F)(F)F)c3)cc2)ccn1 [sorafenib]
[15]
  Increase of survival: 6 months

## O=C(CCCCCN1C(=O)c2cccc3cccc(c23)C1=O)NO [Scriptaid]
[14]
  Apoptosis of Huh7 cells: induced apoptosis of Huh7 cells

## CCCC(=O)[O-].[Na+] [butyrate, sodium butyrate]
[4]; 24 hours
  H3K9 acetylation of NUR77 and RARβ genes (ChIP-qPCR): increased H3K9 acetylation
  Recruitment of HDAC1, HDAC4, and SIRT1 to the regulatory region of NUR77 and RARβ (ChIP-qPCR): decreased recruitment of HDAC1, HDAC4, and SIRT1
[4]
  Histone acetylation (H3K9Ac) in the gene encoding RARβ (ChIP-qPCR): increased histone acetylation
  Recruitment of HDAC4 and SIRT1 to the RARB gene (ChIP-qPCR): reduced the recruitment of HDAC4 and SIRT1; also recorded: decreased the recruitment of HDAC4 and SIRT1
[16]; 24 hours
  Cell viability (MTT assay): reduced cell viability
[16]; 48 hours, propionate 10 mM, valerate 10 mM, vs. DMSO
  Cell viability: Markedly reduced cell viability
[17]
  Acetylated NUR77 and RARβ: only increased acetylated NUR77
[7]
  Induction and localization of NUR77 and RARβ (immunostaining): markedly induced NUR77 and RARβ
[8]
  NUR77 binding to BRE and CCND2 promoter regions and their mRNA levels (NUR77 transcriptional activity): reduced NUR77 binding
[9]
  Expression of Gpr41 and Gpr43: could induce the expression
  Expression of Gpr109a: induced Gpr109a
[18]
  Increase of RARβ binding to the DR5 motif upstream of RARβ and CYP26A1 genes: 4 folds
[19]
  Inhibition of HDAC classes: inhibit Class I (HDAC1, 2, 3, and 8) and Class IIa (HDAC4, 5, 7, and 9)
[10]
  miR-22 expression level: upregulated; also recorded: induce miR-22; also recorded: induced; also recorded: increased miR-22 level
[11]
  Protein levels of HDAC1, HDAC4, SIRT1, and cyclin A2 (CCNA2): reduced HDAC1, HDAC4, SIRT1, and CCNA2 protein levels
[12]
  RARB (RARβ) expression / transcription: upregulated

## cholestyramine
[20]
  Liver cancer formation: prevented liver cancer formation
